The values below come from patent US12091411B2, “IRAK degraders and uses thereof” (Kymera Therapeutics, Inc., priority 2022, dated 2024).

This test addresses T1, IRAK4 (Homo sapiens, UniProt Q9NWZ3).
T1 construct: Degradation of IRAK4 in OCI-LY10 was quantitatively measured using Meso Scale Discovery technology; endogenous in cells; host or cells: OCI-LY10
T1 sequence (Q9NWZ3 1-460): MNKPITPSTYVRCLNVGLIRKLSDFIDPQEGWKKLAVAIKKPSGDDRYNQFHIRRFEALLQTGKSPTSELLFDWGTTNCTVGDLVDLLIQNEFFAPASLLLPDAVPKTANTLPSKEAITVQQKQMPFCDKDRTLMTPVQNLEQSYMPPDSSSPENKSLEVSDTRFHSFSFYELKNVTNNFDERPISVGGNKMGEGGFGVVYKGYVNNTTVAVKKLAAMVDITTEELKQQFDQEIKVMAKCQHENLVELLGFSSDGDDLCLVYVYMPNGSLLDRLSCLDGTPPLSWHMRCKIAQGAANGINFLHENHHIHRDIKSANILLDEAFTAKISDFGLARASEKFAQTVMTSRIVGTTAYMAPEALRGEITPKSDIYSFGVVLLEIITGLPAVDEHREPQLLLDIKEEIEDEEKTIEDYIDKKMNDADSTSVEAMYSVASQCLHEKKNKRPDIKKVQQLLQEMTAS
In words: IRAK4 MSD Degradation in OCI-LY10. Format: cell-based. Particulars: OCI-LY10 cells, MSD. The essentials: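 OCI-LY10 cells exposed to 8-point 1:3 compound series (top 1 to 10 μM) for 4 to 24 h at 37 °C, 5% CO2. Lysate IRAK4 quantified by MSD sandwich immunoassay. DC50 from three-parameter logistic fit, binned A (<0.01 μM) to D (>0.2 μM or not tested).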

Where [1] appears, read: 4 hrs incubation, read-out: IRAK4 degradation in OCI-LY10 at 4 hrs: DC50.
[2] abbreviates: 24 hrs incubation, read-out: IRAK4 degradation in OCI-LY10 at 24 hrs: DC50.

Molecules are shown by their SMILES. Read-outs that look alike come from different tables or passages of the source.

One may read the DC50 as the midpoint of the concentration-degradation curve. On to `Cn1c(=O)n(C2CCC(=O)NC2=O)c2cccc(C3CN([C@@H]4CCN([C@H]5CC[C@H](n6cc(NC(=O)c7cnn8ccc(N9C[C@H]%10C[C@@H]9CO%10)nc78)c(C(F)F)n6)CC5)CC4(F)F)C3)c21` (stereo partly shown) [I-749], for which the 50% degradation concentration (DC50) was more than 200 nM under setting [1] and more than 200 nM under setting [2].
In the case of `Cn1c(=O)n(C2CCC(=O)NC2=O)c2cccc(C3CN([C@H]4CCN([C@H]5CC[C@H](n6cc(NC(=O)c7cnn8ccc(N9C[C@H]%10C[C@@H]9CO%10)nc78)c(C(F)F)n6)CC5)CC4(F)F)C3)c21` (stereo partly shown) [I-750], the DC50 under setting [1] is more than 200 nM and the DC50 under setting [2] is more than 200 nM.
Consider `Cn1c(=O)n(C2CCC(=O)NC2=O)c2ccc(N3CC(N4CCN([C@H]5CC[C@H](n6cc(NC(=O)c7cnn8ccc(N9C[C@H]%10C[C@@H]9CO%10)nc78)c(C(F)F)n6)CC5)CC4)C3)c(F)c21` (stereo partly shown) [I-751], for which the DC50 runs as follows: under setting [1], more than 200 nM; under setting [2], more than 200 nM.
Take `Cn1c(=O)n(C2CCC(=O)NC2=O)c2ccc(C3CN(C4CCN([C@H]5CC[C@H](n6cc(NC(=O)c7cnn8ccc(N9C[C@H]%10C[C@@H]9CO%10)nc78)c(C(F)F)n6)CC5)CC4(F)F)C3)c(F)c21` (stereo partly shown) [I-752]: the half-maximal degradation concentration (DC50) is, setting by setting: under setting [1], more than 200 nM; under setting [2], more than 200 nM.
`Cn1c(=O)n(C2CCC(=O)NC2=O)c2ccc(F)c(C3CN(C4CCN([C@H]5CC[C@H](n6cc(NC(=O)c7cnn8ccc(N9C[C@H]%10C[C@@H]9CO%10)nc78)c(C(F)F)n6)CC5)CC4(F)F)C3)c21` (stereo partly shown) [I-753]: the DC50 was more than 200 nM under setting [1] and more than 200 nM under setting [2].
For the compound `Cn1c(=O)n(C2CCC(=O)NC2=O)c2cccc(OC3CCN([C@H]4CC[C@H](n5cc6cc(NC(=O)c7cccc(C(F)(F)F)n7)ccc6n5)CC4)CC3(F)F)c21` (stereo partly shown) [I-754], the half-maximal degradation concentration (DC50) is, setting by setting: under setting [1], more than 200 nM; under setting [2], more than 200 nM.
For `Cn1c(=O)n(C2CCC(=O)NC2=O)c2cccc(OC3CCN([C@H]4CC[C@H](n5cc6cc(NC(=O)c7cccc(C(F)(F)F)n7)ncc6n5)CC4)CC3(F)F)c21` (stereo partly shown) [I-755], the DC50 runs as follows: under setting [1], more than 200 nM; under setting [2], more than 200 nM.
Regarding `Cn1c(=O)n(C2CCC(=O)NC2=O)c2cccc(OC3CCN([C@H]4CC[C@H](n5cc(NC(=O)c6cnn7ccc(N8C[C@H]9C[C@@H]8CO9)nc67)c(C(F)F)n5)CC4)CC3(F)F)c21` (stereo partly shown) [I-756], the DC50 was more than 200 nM under setting [1] and more than 200 nM under setting [2].
On to `Cn1c(=O)n(C2CCC(=O)NC2=O)c2cccc(C#CCN3CCC(C[C@H]4CC[C@H](n5cc(NC(=O)c6cnn7ccc(N8C[C@H]9C[C@@H]8CO9)nc67)c(C(F)F)n5)CC4)CC3)c21` (stereo partly shown) [I-757], for which the DC50 under setting [1] is more than 200 nM and the 50% degradation concentration (DC50) under setting [2] is more than 200 nM.
As for `Cn1c(=O)n(C2CCC(=O)NC2=O)c2cccc(C#CCN3CCC(C[C@H]4CC[C@H](n5cc6cc(NC(=O)c7cccc(C(F)(F)F)n7)ccc6n5)CC4)CC3)c21` (stereo partly shown) [I-758], the 50% degradation concentration (DC50) is more than 200 nM under setting [1] and more than 200 nM under setting [2].
As to `Cn1c(=O)n(C2CCC(=O)NC2=O)c2cccc(C#CCN3CCC(C[C@H]4CC[C@H](n5cc6cc(NC(=O)c7cccc(C(F)(F)F)n7)ncc6n5)CC4)CC3)c21` (stereo partly shown) [I-759], the DC50 under setting [1] was more than 200 nM and the DC50 under setting [2] is more than 200 nM.
As for `Cn1c(=O)n(C2CCC(=O)NC2=O)c2cccc(N3CC(C4CCN([C@H]5CC[C@@H](n6cc(NC(=O)c7cnn8ccc(N9C[C@H]%10C[C@@H]9CO%10)nc78)c(C(F)F)n6)CC5)CC4(F)F)C3)c21` (stereo partly shown) [I-760], the DC50 by setting is: under setting [1], more than 200 nM; under setting [2], more than 200 nM.
For `Cn1c(=O)n(C2CCC(=O)NC2=O)c2cccc(N3CC(C4CCN(C[C@H]5CC[C@H](n6cc(NC(=O)c7cnn8ccc(N9C[C@H]%10C[C@@H]9CO%10)nc78)c(C(F)F)n6)CC5)CC4(F)F)C3)c21` (stereo partly shown) [I-761], the DC50 was more than 200 nM under setting [1] and more than 200 nM under setting [2].
Regarding `Cn1c(=O)n(C2CCC(=O)NC2=O)c2cccc(N3CC(C4CCN([C@H]5CC[C@H](n6cc(NC(=O)c7cnn8ccc(N9C[C@H]%10C[C@@H]9CO%10)nc78)c(C(F)F)n6)CC5)CC4(F)F)C3)c21` (stereo partly shown) [I-762], the DC50 is more than 200 nM under setting [1] and more than 200 nM under setting [2].
